# Reference: ChEMBL document CHEMBL4507261, “Data for DCP probe A-192621” (2021)
# Experiments:
# [1] = biological target: Testis-specific serine/threonine-protein kinase 1 (Homo sapiens) (UniProt Q9BXA7); settings: Compound concentration 1000.0 nM
# [2] = biological target: Serine/threonine-protein kinase TBK1 (Homo sapiens) (UniProt Q9UHD2); settings: Compound concentration 1000.0 nM
# [3] = biological target: Cyclin-dependent kinase 14 (Homo sapiens) (UniProt O94921); settings: Compound concentration 1000.0 nM
# [4] = biological target: Serine/threonine-protein kinase PAK 6 (Homo sapiens) (UniProt Q9NQU5); settings: Compound concentration 1000.0 nM
# [5] = system: ALK tyrosine kinase receptor (Homo sapiens), Q9UM73 [C1156Y]; settings: Compound concentration 1000.0 nM
# [6] = biological target: Ribosomal protein S6 kinase alpha-4 (Homo sapiens) (UniProt O75676); settings: Compound concentration 1000.0 nM
# [7] = system: Phosphatidylinositol 4,5-bisphosphate 3-kinase catalytic subunit alpha isoform (Homo sapiens), P42336 [H1047Y]; settings: Compound concentration 1000.0 nM
# [8] = biological target: Myosin light chain kinase, smooth muscle (Homo sapiens) (UniProt Q15746); settings: Compound concentration 1000.0 nM
# [9] = biological target: Phosphatidylinositol 3-kinase C2 domain-containing subunit gamma (Homo sapiens) (UniProt O75747); settings: Compound concentration 1000.0 nM
# [10] = biological target: Ribosomal protein S6 kinase alpha-1 (Homo sapiens) (UniProt Q15418); settings: Compound concentration 1000.0 nM
# [11] = biological target: Tyrosine-protein kinase Fer (Homo sapiens) (UniProt P16591); settings: Compound concentration 1000.0 nM
# [12] = biological target: TGF-beta receptor type-1 (Homo sapiens) (UniProt P36897); settings: Compound concentration 1000.0 nM
# [13] = biological target: Macrophage colony-stimulating factor 1 receptor (Homo sapiens) (UniProt P07333); settings: Compound concentration 1000.0 nM
# [14] = biological target: Cyclin-dependent kinase 7 (Homo sapiens) (UniProt P50613); settings: Compound concentration 1000.0 nM
# [15] = biological target: Serine/threonine-protein kinase tousled-like 1 (Homo sapiens) (UniProt Q9UKI8); settings: Compound concentration 1000.0 nM
# [16] = biological target: cAMP-dependent protein kinase catalytic subunit beta (Homo sapiens) (UniProt P22694); settings: Compound concentration 1000.0 nM
# [17] = biological target: Cyclin-dependent kinase-like 1 (Homo sapiens) (UniProt Q00532); settings: Compound concentration 1000.0 nM
# [18] = biological target: Angiopoietin-1 receptor (Homo sapiens) (UniProt Q02763); settings: Compound concentration 1000.0 nM
# [19] = biological target: Rho-associated protein kinase 1 (Homo sapiens) (UniProt Q13464); settings: Compound concentration 1000.0 nM
# [20] = biological target: Muscle, skeletal receptor tyrosine-protein kinase (Homo sapiens) (UniProt O15146); settings: Compound concentration 1000.0 nM
# [21] = biological target: Vascular endothelial growth factor receptor 1 (Homo sapiens) (UniProt P17948); settings: Compound concentration 1000.0 nM
# [22] = biological target: P2X receptor (Rattus norvegicus) (UniProt P51579+P49653+P51578+Q64663+P47824+P51577+P49654); test: P2X Eurofins-Cerep binding assay; assay type: protein assay; parameters: ligand concentration 3 nM; settings: filed as agonist, Compound concentration 10.0 uM
# [23] = biological target: Non-receptor tyrosine-protein kinase TYK2 (Homo sapiens) (UniProt P29597); settings: Compound concentration 1000.0 nM
# [24] = biological target: Membrane-associated tyrosine- and threonine-specific cdc2-inhibitory kinase (Homo sapiens) (UniProt Q99640); settings: Compound concentration 1000.0 nM
# [25] = biological target: TRAF2 and NCK-interacting protein kinase (Homo sapiens) (UniProt Q9UKE5); settings: Compound concentration 1000.0 nM
# [26] = biological target: 5-hydroxytryptamine receptor 2A (Homo sapiens) (UniProt P28223); test: 5-HT2A (h) Eurofins-Cerep binding assay; parameters: ligand concentration 0.5 nM; settings: filed as antagonist, Compound concentration 10.0 uM
# [27] = biological target: Serine/threonine-protein kinase MAK (Homo sapiens) (UniProt P20794); settings: Compound concentration 1000.0 nM
# [28] = biological target: Mitogen-activated protein kinase kinase kinase 19 (Homo sapiens) (UniProt Q56UN5); settings: Compound concentration 1000.0 nM
# [29] = system: Mast/stem cell growth factor receptor Kit (Homo sapiens), P10721 [L576P]; settings: Compound concentration 1000.0 nM
# [30] = biological target: Inhibitor of nuclear factor kappa-B kinase subunit beta (Homo sapiens) (UniProt O14920); settings: Compound concentration 1000.0 nM
# [31] = biological target: Inhibitor of nuclear factor kappa-B kinase subunit epsilon (Homo sapiens) (UniProt Q14164); settings: Compound concentration 1000.0 nM
# [32] = biological target: Tyrosine-protein kinase Yes (Homo sapiens) (UniProt P07947); settings: Compound concentration 1000.0 nM
# [33] = biological target: NT-3 growth factor receptor (Homo sapiens) (UniProt Q16288); settings: Compound concentration 1000.0 nM
# [34] = biological target: Interferon-induced, double-stranded RNA-activated protein kinase (Homo sapiens) (UniProt P19525); settings: Compound concentration 1000.0 nM
# [35] = system: Epidermal growth factor receptor (Homo sapiens), P00533 [UNDEFINED MUTATION]; settings: Compound concentration 1000.0 nM
# [36] = biological target: Cytoplasmic tyrosine-protein kinase BMX (Homo sapiens) (UniProt P51813); settings: Compound concentration 1000.0 nM
# [37] = biological target: Macrophage-stimulating protein receptor (Homo sapiens) (UniProt Q04912); settings: Compound concentration 1000.0 nM
# [38] = biological target: Dual specificity mitogen-activated protein kinase kinase 4 (Homo sapiens) (UniProt P45985); settings: Compound concentration 1000.0 nM
# [39] = biological target: Myosin-IIIb (Homo sapiens) (UniProt Q8WXR4); settings: Compound concentration 1000.0 nM
# [40] = biological target: Type-1 angiotensin II receptor (Homo sapiens) (UniProt P30556); test: AT1 (h) Eurofins-Cerep binding assay; parameters: ligand concentration 0.05 nM; settings: filed as antagonist, Compound concentration 10.0 uM
# [41] = biological target: Serine/threonine-protein kinase SBK1 (Homo sapiens) (UniProt Q52WX2); settings: Compound concentration 1000.0 nM
# [42] = biological target: Atypical kinase COQ8A, mitochondrial (Homo sapiens) (UniProt Q8NI60); settings: Compound concentration 1000.0 nM
# [43] = biological target: Serine/threonine-protein kinase MRCK gamma (Homo sapiens) (UniProt Q6DT37); settings: Compound concentration 1000.0 nM
# [44] = biological target: Ephrin type-A receptor 5 (Homo sapiens) (UniProt P54756); settings: Compound concentration 1000.0 nM
# Chain of TGF-beta receptor type-1 (Homo sapiens) (P36897 whole entry): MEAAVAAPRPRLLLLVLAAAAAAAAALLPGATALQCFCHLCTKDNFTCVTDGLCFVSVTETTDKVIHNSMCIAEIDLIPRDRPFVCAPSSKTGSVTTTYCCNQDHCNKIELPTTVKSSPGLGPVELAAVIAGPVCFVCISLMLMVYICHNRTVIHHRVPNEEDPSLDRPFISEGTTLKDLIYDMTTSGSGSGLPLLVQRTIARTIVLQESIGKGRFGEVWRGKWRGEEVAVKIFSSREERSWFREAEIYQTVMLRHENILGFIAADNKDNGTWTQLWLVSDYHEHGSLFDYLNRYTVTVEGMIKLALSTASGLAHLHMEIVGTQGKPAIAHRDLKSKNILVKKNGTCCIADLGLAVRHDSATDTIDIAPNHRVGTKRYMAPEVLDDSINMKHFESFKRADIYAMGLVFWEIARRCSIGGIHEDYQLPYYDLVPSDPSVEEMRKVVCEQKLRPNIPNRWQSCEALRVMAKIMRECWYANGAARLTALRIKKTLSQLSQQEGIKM
# Chain of Serine/threonine-protein kinase tousled-like 1 (Homo sapiens) (Q9UKI8 whole entry): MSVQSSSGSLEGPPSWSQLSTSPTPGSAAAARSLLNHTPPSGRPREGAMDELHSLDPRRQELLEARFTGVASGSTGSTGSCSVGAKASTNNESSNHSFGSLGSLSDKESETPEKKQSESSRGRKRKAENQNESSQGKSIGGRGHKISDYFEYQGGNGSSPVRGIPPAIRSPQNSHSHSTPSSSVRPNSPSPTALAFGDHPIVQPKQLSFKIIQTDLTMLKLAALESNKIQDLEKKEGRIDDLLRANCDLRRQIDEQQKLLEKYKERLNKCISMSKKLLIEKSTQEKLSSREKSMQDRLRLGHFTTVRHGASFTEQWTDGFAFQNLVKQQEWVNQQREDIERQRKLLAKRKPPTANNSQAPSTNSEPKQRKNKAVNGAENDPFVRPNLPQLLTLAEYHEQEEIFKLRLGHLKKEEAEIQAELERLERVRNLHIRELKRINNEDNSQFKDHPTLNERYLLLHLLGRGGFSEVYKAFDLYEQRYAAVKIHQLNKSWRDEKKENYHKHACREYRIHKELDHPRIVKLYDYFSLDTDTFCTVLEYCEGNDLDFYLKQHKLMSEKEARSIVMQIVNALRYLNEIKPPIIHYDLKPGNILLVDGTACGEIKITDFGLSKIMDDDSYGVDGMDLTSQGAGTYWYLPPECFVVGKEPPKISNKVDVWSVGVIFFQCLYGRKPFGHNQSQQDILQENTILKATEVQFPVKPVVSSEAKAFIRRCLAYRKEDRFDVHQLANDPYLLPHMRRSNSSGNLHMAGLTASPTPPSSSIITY
# Chain of Ribosomal protein S6 kinase alpha-1 (Homo sapiens) (Q15418 whole entry): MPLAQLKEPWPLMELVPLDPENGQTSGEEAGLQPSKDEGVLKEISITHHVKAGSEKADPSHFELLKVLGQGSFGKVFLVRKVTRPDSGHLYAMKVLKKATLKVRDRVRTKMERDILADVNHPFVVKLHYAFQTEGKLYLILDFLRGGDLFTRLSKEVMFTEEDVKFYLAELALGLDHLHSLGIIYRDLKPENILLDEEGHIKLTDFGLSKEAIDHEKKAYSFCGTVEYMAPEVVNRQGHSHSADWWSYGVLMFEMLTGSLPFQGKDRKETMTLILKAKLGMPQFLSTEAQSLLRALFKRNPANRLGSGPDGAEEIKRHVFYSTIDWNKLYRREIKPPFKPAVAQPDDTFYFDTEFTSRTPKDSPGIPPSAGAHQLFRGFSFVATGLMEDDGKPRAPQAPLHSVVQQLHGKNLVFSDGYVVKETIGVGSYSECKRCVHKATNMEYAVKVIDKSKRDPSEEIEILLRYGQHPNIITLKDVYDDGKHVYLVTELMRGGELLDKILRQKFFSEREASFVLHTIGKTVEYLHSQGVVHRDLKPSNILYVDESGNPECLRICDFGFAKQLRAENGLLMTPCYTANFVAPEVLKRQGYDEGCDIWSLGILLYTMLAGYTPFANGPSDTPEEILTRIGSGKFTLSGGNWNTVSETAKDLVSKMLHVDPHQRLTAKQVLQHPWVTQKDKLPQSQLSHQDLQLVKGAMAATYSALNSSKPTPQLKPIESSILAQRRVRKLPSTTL
# Chain of Serine/threonine-protein kinase PAK 6 (Homo sapiens) (Q9NQU5 whole entry, looked up): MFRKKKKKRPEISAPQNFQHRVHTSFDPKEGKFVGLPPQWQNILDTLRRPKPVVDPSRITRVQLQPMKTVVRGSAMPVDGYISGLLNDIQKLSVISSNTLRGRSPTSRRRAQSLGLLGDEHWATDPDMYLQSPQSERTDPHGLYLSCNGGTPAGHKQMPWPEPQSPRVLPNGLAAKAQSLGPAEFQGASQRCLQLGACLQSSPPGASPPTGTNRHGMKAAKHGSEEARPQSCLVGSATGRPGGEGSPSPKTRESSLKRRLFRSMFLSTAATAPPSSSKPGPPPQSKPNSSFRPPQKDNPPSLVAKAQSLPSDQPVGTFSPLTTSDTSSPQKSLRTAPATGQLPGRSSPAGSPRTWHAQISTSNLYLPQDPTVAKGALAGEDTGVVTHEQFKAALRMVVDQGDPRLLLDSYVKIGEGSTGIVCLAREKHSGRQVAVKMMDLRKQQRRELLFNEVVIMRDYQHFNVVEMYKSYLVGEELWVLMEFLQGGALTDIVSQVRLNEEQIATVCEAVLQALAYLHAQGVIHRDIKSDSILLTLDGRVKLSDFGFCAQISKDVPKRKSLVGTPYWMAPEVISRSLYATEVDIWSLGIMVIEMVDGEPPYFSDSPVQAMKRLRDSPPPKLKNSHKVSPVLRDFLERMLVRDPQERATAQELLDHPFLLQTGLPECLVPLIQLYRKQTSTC
# Chain of Inhibitor of nuclear factor kappa-B kinase subunit beta (Homo sapiens) (O14920 whole entry): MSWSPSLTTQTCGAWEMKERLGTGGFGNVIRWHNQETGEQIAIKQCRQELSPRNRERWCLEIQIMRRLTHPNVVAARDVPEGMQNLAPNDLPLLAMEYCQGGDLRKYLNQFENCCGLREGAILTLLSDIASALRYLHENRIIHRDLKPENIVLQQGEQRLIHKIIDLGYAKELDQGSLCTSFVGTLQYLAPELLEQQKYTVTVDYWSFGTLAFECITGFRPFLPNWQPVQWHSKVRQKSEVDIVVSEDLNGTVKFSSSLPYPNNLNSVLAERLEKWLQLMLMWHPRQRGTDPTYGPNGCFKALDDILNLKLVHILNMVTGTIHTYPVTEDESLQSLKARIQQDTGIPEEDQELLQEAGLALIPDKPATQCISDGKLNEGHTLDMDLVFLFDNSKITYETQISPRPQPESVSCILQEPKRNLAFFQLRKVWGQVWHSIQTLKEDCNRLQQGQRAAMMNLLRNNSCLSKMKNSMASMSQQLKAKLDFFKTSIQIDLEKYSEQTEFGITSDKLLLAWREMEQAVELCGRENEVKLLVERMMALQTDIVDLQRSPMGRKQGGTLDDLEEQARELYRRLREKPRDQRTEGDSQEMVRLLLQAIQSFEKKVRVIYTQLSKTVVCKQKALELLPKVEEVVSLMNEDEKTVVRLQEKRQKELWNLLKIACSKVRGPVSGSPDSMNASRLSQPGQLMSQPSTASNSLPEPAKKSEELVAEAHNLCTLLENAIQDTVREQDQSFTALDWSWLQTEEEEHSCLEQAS
# Chain of Epidermal growth factor receptor (Homo sapiens), P00533 [UNDEFINED MUTATION] (P00533 whole entry, looked up, change not shown): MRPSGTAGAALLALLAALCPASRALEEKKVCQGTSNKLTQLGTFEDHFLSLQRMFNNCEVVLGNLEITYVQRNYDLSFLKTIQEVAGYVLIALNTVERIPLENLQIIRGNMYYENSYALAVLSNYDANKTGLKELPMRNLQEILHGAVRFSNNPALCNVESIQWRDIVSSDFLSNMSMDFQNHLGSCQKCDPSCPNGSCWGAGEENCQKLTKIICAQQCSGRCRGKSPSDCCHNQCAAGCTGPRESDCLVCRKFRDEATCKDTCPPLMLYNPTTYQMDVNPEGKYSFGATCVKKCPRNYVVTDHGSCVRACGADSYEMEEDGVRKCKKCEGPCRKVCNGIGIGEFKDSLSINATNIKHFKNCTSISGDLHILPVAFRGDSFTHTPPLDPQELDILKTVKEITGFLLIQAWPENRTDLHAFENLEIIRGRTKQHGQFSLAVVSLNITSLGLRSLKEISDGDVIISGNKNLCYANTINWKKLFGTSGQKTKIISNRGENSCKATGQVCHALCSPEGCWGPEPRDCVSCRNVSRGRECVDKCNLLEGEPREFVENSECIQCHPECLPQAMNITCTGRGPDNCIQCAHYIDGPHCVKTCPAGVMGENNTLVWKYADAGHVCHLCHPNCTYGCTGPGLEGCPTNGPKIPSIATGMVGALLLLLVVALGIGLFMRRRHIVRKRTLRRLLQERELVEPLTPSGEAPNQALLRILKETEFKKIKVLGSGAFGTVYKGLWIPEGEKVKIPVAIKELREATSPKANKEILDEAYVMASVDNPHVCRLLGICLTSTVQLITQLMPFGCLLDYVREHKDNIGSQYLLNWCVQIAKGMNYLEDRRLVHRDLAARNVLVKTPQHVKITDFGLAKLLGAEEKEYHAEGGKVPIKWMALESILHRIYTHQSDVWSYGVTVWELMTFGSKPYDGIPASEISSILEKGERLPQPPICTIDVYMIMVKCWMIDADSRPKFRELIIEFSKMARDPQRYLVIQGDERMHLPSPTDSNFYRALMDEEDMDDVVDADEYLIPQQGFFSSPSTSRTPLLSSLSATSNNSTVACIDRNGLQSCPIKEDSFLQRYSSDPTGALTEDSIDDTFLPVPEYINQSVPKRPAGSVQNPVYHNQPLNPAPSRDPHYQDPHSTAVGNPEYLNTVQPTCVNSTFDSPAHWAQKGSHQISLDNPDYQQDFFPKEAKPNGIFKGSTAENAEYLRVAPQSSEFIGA
# Chain of Testis-specific serine/threonine-protein kinase 1 (Homo sapiens) (Q9BXA7 whole entry): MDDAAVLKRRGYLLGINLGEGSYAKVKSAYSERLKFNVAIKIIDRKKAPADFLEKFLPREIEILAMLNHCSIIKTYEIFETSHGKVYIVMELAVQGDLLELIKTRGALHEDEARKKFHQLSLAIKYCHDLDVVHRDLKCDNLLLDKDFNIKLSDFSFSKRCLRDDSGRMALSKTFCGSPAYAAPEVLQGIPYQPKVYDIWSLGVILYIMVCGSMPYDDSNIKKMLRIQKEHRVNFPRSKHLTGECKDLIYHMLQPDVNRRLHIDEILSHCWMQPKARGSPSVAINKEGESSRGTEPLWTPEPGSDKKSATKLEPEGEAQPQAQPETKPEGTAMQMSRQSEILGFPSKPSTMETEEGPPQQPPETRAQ
structure (smiles),measurement,setting,value
CCCOc1ccc([C@@H]2[C@@H](C(=O)O)[C@H](c3ccc4c(c3)OCO4)CN2CC(=O)Nc2c(CC)cccc2CC)cc1 [A-1806262],residual activity,[1],100%
same,residual activity,[2],100%
same,residual activity,[3],92%
same,residual activity,[4],83%
same,residual activity,[5],79%
same,residual activity,[6],90%
same,residual activity,[7],100%
same,residual activity,[8],100%
same,residual activity,[9],78%
same,residual activity,[10],77%
same,residual activity,[11],100%
same,residual activity,[12],64%
same,residual activity,[13],90%
same,residual activity,[14],86%
same,residual activity,[15],77%
same,residual activity,[16],100%
same,residual activity,[17],77%
same,residual activity,[18],86%
same,residual activity,[19],81%
same,residual activity,[20],97%
same,residual activity,[21],94%
same,% Inhibition of Control Specific Binding (Mean n=2),[22],13.4%
same,residual activity,[23],81%
same,residual activity,[24],100%
same,residual activity,[25],100%
same,% Inhibition of Control Specific Binding (Mean n=2),[26],-2.9%
same,residual activity,[27],93%
same,residual activity,[28],93%
same,residual activity,[29],100%
same,residual activity,[30],94%
same,residual activity,[31],85%
same,residual activity,[32],90%
same,residual activity,[33],91%
same,residual activity,[34],100%
same,residual activity,[35],58%
same,residual activity,[36],100%
same,residual activity,[37],91%
same,residual activity,[38],83%
same,residual activity,[39],52%
same,% Inhibition of Control Specific Binding (Mean n=2),[40],-3.8%
same,residual activity,[41],81%
same,residual activity,[42],100%
same,residual activity,[43],57%
same,residual activity,[44],100%
CCCOc1ccc([C@H]2[C@H](C(=O)O)[C@@H](c3ccc4c(c3)OCO4)CN2CC(=O)Nc2c(CC)cccc2CC)cc1 [A-192621],residual activity,[1],92%
same,residual activity,[2],91%
same,residual activity,[3],100%
same,residual activity,[4],68%
same,residual activity,[5],98%
same,residual activity,[6],68%
same,residual activity,[7],78%
same,residual activity,[8],85%
same,residual activity,[9],75%
same,residual activity,[10],74%
same,residual activity,[11],100%
same,residual activity,[12],64%
same,residual activity,[13],61%
same,residual activity,[14],78%
same,residual activity,[15],74%
same,residual activity,[16],87%
same,residual activity,[17],66%
same,residual activity,[18],100%
same,residual activity,[19],65%
same,residual activity,[20],82%
same,residual activity,[21],97%
same,% Inhibition of Control Specific Binding (Mean n=2),[22],-2.8%
same,residual activity,[23],80%
same,residual activity,[24],74%
same,residual activity,[25],88%
same,% Inhibition of Control Specific Binding (Mean n=2),[26],5.5%
same,residual activity,[27],97%
same,residual activity,[28],77%
same,residual activity,[29],90%
same,residual activity,[30],77%
same,residual activity,[31],68%
same,residual activity,[32],99%
same,residual activity,[33],71%
same,residual activity,[34],100%
same,residual activity,[35],81%
same,residual activity,[36],100%
same,residual activity,[37],86%
same,residual activity,[38],80%
same,residual activity,[39],66%
same,% Inhibition of Control Specific Binding (Mean n=2),[40],1.5%
same,residual activity,[41],78%
same,residual activity,[42],100%
same,residual activity,[43],79%
same,residual activity,[44],100%
